Experimental data reported in patent publication US6291247A, “Methods of screening for factors that disrupt neurotrophin conformation and reduce neurotrophin biological activity” (priority 1996, dated 2001).
“Also recorded” adds a separate entry of the source. Bridges are numbered along the chain shown (N, C = ends).

Assays:
p75^NTR = test: 125I-BDNF binding to p75NTR; details: 100 μM Zn2+, n = 3; 120 min
Experimental: Full length (1-118) mouse NGF purified by HPLC from 2.5S NGF (purity greater than 95%) was obtained from Cedarlane Laboratories (Toronto, Ont). The iodination of NGF was performed as previously described (Sutter, A, Riopelle, R. J., Harris-Warrick, R. M. & Shooter, E. M. Nerve growth factor receptors. J. Biol. Chem. 254, 5972-5982 (1979)). […] PC12 cells were grown in RPMI with 10% heat inactivated donor horse serum and 5% fetal calf serum. Each data point was set up in a single tube containing ^125 I-NGF (at the required concentration), 400,000 cells (for a final call concentration of 10^6 /ml), BDNF (at 40 nM for TrkA binding) and NGF (at 10 nM for non-specific binding) as required. The tubes were incubated for 2 hr at 4° C. and 100 μl aliquots (providing triplicate data points for each sample) were transferred to 400 μl microcentrifuges containing 200 μl of 10% glycerol in HKR. Tubes were centrifuged for 2 minutes at 5,000 rpm, the tip containing the cell pellet cut off and radioactivity bound to the cells was determined.
Human recombinant BDNF and human recombinant NT-3 were obtained from Alomone Laboratories (Israel). The iodination, crosslinking, and binding experiments using BDNF and NT-3 were performed using the methods described above for NGF. Neurite outgrowth assays were performed as described in the presence of 4.0 nM NT-3 or 8.0 nM BDNF.

[1] = test system: kindling-induced seizures; details: kindling animal model of epilepsy (Rashid et al. 1995); cited from earlier work
[2] = test system: dorsal root ganglion (DRG) neurons; test: NGF-dependent neurite growth of ED8 chick DRG neurons (FIG. 6, Terasaki plates); format: cell-based
Experimental: FIG. 6 is a graph showing the ability of R11 to inhibit the activity of NGF in vitro using a biological assay system. […] Dissociated cells enriched for sensory neurons were prepared from embryonic day 8 (ED8) chick dorsal root ganglion (DRG) as described (Sutter et al., J. Biol. Chem. 254: 5972-5982 (1979)). Neurons were seed into wells of Terasaki plates treated sequentially with poly-D-lysine and laminin at a density of 800-1000 cells/well in "synthetic" Dulbecco's modified Eagle medium (Bottenstein et al., Proc. Natl. Acad. Sci. USA 76: 514-517 (1979)) containing 1% fetal calf serum and NGF at […]. The cells were incubated with the additives indicated at 37° C. in a 5% CO2 atmosphere At 18-20 hours, the cells were fixed in 4% formaldehyde in phosphate-buffered saline and scored for neurite growth. The cells on the entire lower horizontal surface of the well were counted using an inverted microscope fitted with phase contrast optics. A neurite was scored if its caliber from origin to terminal was constant and its length was equal to or greater than 1.5 cell body diameters. Neurite growth was corrected for background (no NGF) growth in the presence and absence of peptide.
Such a profile is not typical of a competitive inhibitor. That is, a different dose response profile would be expected if R11 were simply competing with NGF for binding to a receptor. Neither of the less constrained synthetic Intermediates of R11, i.e., R11 (linear) or R11 (monocyclic), was as effective in blocking NGF-dependent neurite growth concentrations up to 200 μM.

NGF = molecular target: T1, NGF (Mus musculus, UniProt P01139); test: Cross-linking of NGF protomers in a cell-free system (Example 6); format: biochemical
T1 construct: homodimer
T1 sequence (P01139 122-239): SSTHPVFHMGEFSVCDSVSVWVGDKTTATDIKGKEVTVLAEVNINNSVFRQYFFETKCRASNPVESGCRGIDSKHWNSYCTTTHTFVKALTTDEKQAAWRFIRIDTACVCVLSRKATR
Excerpt: That is, under denaturing conditions, NGF normally dissociates and electrophoreses as a monomer (FIG. 8, lane 1). In contrast, native NGF dimers that had been covalently cross-linked by BS^3 were unable to dissociate and were resolved from free monomer as a more slowly migrating band on the gel (FIG. 8, lane 2).

## [Zn+2] [Zn^2+]
p75^NTR
  % Maximum p75NTR binding, 125I-BDNF: 10.0 ± 4.5 % Maximum binding

## NH2 -Cys-Gly-Ser-Glu-Val-Pro-Asn-Ser-Ala-Arg-Cys-Cys-Val-Cys-OH (H-CGSEVPNSARCCVC-OH; disulfide 1-14, 11-12) [R11, bicyclic peptide of NGF residues 68-58/108-110, two disulfide bonds]
[1]
  Inhibition of seizure and mossy fiber sprouting: inhibit both seizure and mossy fiber sprouting
[2]; 100 μM
  Block of NGF-mediated neurite growth: 70%
[2]; ED8 chick DRG neurons, FIG. 6, read-out: IC50, inhibition of NGF-dependent neurite growth
  IC50: 10 µM
[2]; concentration similar to 200 μM
  Block of NGF-mediated neurite growth: virtually all
NGF; 100 μM R11
  NGF protomer cross-linking to BSA: increased dramatically
NGF; 100 μM R11, cell-free
  Cross-linking of NGF promoters by BS3: reduced almost to the point of elimination; also recorded: loss of NGF dimer
